The text below walks through data of patent publication US8846411B2, “Derivatives, reagents, and immunoassay for detecting levetiracetam” (Microgenics Corporation, priority 2009, dated 2014).

The conditions of data set [1]: cited from earlier work.
Data set [2] relates to anti-levetiracetam antibody prepared with immunogen 18a. The data set can be described thus: Antibody avidity by ELISA binding inhibition study with levetiracetam. The note with it: Sheep No. 5479 antibody. As to the method:
The avidity of the anti-levetiracetam antibody prepared with immunogen 18a for various levetiracetam derivatives were determined by a binding inhibition study. Samples were prepared in 1 mL of PBS at pH 7.4 with 0.1% BSA. A composition having 30% Bmax titer or 50% Bmax titer was used to divide the titer value as obtained in Example 38 into approximately half the titer value. Using 30% Bmax, an antibody titer of 1:10000 was diluted to […] during the sample preparation stage. About 50 μL of levetiracetam at different concentrations or calibrator values, (0, 5, 10, 20, 40, 80 μg/ml) were applied to a plate as prepared in accordance with Example 38. About 50 μL of the diluted antibody was dispensed into the plate, and the compositions in the plate were mixed for 1 min on a horizontal plate shaker. No levetiracetam or anti-levetiracetam antibody was added to the first row of the plate, which served as a negative control. A second row with anti-levetiracetam antibody but without levetiracetam was used as the positive control. The plate was incubated for 60 min and washed three times with 250 μL of PBS at pH 7.4 with 0.05% Tween 20. About 125 μL of a diluted derivative such as 18b or 19 in PBS at pH 7.4 was added to each well of the plate. The plate was incubated for 60 min at 37° C. and washed as described above. Approximately 125 μL of ABTS substrate was added to each well of the plate and incubated for 20 min.
On the technique in general: An ELISA detects its analyte on a solid surface through an enzyme-linked reagent.

Consider `O=C(O)CCCN1CCCC1=O` [2-pyrrolidone-N-butyric acid], for which the “share of the administered dose accounted for by metabolite excreted in urine” value in data set [1] (urine, after administration of LEV) was “approximately 27%”.

Take `CC[C@@H](C(N)=O)N1CCCC1=O` [Levetiracetam, (−)-(S)-α-ethyl-2-oxo-1-pyrrolidine acetamide]: the B/Bo in data set [2] (Levetiracetam 5 μg/mL, Antigen 18b) is listed as 0.96; in data set [2] (Levetiracetam 5 μg/mL, Antigen 19), 0.98; in data set [2] (Levetiracetam 10 μg/mL, Antigen 18b), 0.98; in data set [2] (Levetiracetam 10 μg/mL, Antigen 19), 0.91; in data set [2] (Levetiracetam 20 μg/mL, Antigen 18b), 0.90; in data set [2] (Levetiracetam 20 μg/mL, Antigen 19), 0.86. The B/Bo in data set [2] (Levetiracetam 40 μg/mL, Antigen 18b) was found to be 0.88; in data set [2] (Levetiracetam 40 μg/mL, Antigen 19), 0.78; in data set [2] (Levetiracetam 80 μg/mL, Antigen 18b), 0.87; in data set [2] (Levetiracetam 80 μg/mL, Antigen 19), 0.77. Further, the nominal therapeutic range in data set [1] (in vivo) was 6 to 20 µg/mL. Moreover, in data set [1] (trough, serum/plasma), the “optimal trough serum/plasma concentration range” value was 10 to 60 mg/L. Also, the “given dose excreted unchanged in urine” value in data set [1] (urine, elimination via the kidney) is recorded as “approximately 64%”.
